Experiment: Tolerability of mono-ethanolamine on humans
Type: in vivo
Settings: when used in higher concentrations

NCCO [mono-ethanolamine, 2-aminoethanol]
irritation of eyes and mucus membranes: irritating to the eyes and mucus membranes
